Results on one compound are retold here after patent US12692237B2, “Continuous method for preparing tricyanoimidazole” (UCHICAGO ARGONNE, LLC, priority 2022, dated 2026).

The nature of data set [1]: Solvent screening: solubility of DCI-NH2 slurried in acetonitrile plus various solvents. In kind it is physicochemical. To be noted: for Solubility, +100 uL solvent / Solubility, +200 uL water: +100 uL solvent. Here is the method:
Samples of DCI-NH2 (40 mg) were slurried in acetonitrile (0.25 ml) plus various solvents (0.05 ml).

Assay in data set [2]: as above
In kind it is physicochemical. Particulars: 40 mg in MeCN:water = 0.5:0.2 mL.

Where [3] appears, read: 40 mg in acetonitrile 0.25 ml + NMP 0.05 ml.
[4] abbreviates: 40 mg in acetonitrile 0.25 ml + Nitromethane 0.05 ml.
[5] abbreviates: 40 mg in acetonitrile 0.25 ml + Propylene carbonate 0.05 ml.
Setting [6] is: 40 mg in acetonitrile 0.25 ml + Sulfolane 0.05 ml.

In the case of `N#Cc1nc(N)[nH]c1C#N` [DCI-NH2, 2-amino-1H-imidazole-4,5-dicarbonitrile], the Solubility entry is “soluble” in data set [1] (40 mg in acetonitrile 0.25 ml + Diglyme 0.05 ml); “soluble” in data set [1] (40 mg in acetonitrile 0.25 ml + Dmso 0.05 ml); “partial” in data set [1] (setting [3]); “No” in data set [1] (setting [4]); “No” in data set [1] (setting [5]); “No” in data set [1] (setting [6]). Moreover, the Solubility entry in data set [2] is “soluble”. In addition, the “Solubility, +100 uL solvent” value in data set [1] (setting [3]) is listed as “soluble”; in data set [1] (setting [4]), “No”; in data set [1] (setting [5]), “No”; in data set [1] (setting [6]), “No”. In addition, the entries for the “Solubility, +200 uL water” value in data set [1] (setting [4]), in data set [1] (setting [5]) and in data set [1] (setting [6]) were “No”, “soluble” and “soluble”, respectively.
